# Measurements published in paper PMC8931250, “A SURF4-to-proteoglycan relay mechanism that mediates the sorting and secretion of a tagged variant of sonic hedgehog” (Proceedings of the National Academy of Sciences of the …, 2022).
# Ends that are not written are not given here.
# Target: T1, GST-SURF4^49-60 (Homo sapiens, UniProt O15260)
# T1 construct: SURF4 (49-60) in the same buffer was in the calorimetric cell; made in house; host or cells: Escherichia coli
# Assay: Isothermal titration calorimetry, CW peptide vs GST-SURF4(49-60)
# Type: binding
# Settings: ITC (PEAQ-ITC); 500 µM CW peptide into 50 µM GST-SURF4 (49-60); 10 mM PBS, 0.5 mM HEPES, 6.3 mM sorbitol, 1.75 mM KOAc, 25 µM Mg(OAc)2, 25 µM BSA, 0.003% Triton, pH 7.2; one set of site model; read-out: Kd of CW peptides for GST-SURF4^49-60
# Text: To measure a direct interaction, we immobilized the first luminal loop of SURF4 (SEQRDYIDTTWNC, referred to as SURF4 luminal peptides) on beads and then performed pull down analysis using purified GST and Shh^25-49-GST as prey (Fig. 3H). […] As an additional test, we performed pull down analysis using peptides corresponding to the CW motif (KRRHPKKC, referred to as CW peptides) as bait and purified GST-SURF4^49-60 as prey (Fig. 3J). […] We then immobilized peptides corresponding to the first intracellular loop of Frizzled6 (VRRFRYPERPC, referred to as RRFR) ([27]) on beads.
# The samples were centrifuged at 55,000 rpm in a TLS55 rotor in a Beckman ultracentrifuge for 2 hr at 4 °C.
# After centrifugation, fractions were collected from the top to the bottom of the tube, and the top fraction was analyzed by SDS-PAGE and immunoblotting.
# Isothermal titration calorimetry (ITC)
# We utilized a commercial isothermal titration calorimeter (PEAQ-ITC system, MicroCal, Malvern Panalytical, United Kingdom) to perform titration experiments. In these experiments, a 500 µM solution of CW peptide in a diluted binding buffer (10 mM PBS, 0.5 mM HEPES, 6.3 mM sorbitol, 1.75 mM KOAc, 25 µM Mg(OAc)2 , 25 µM BSA, 0.003% Triton, pH 7.2) was loaded into the syringe of the ITC instrument and a 50 µM solution of GST -SURF4 (49-60) in the same buffer was in the calorimetric cell. […]
sequence,measurement,value
KRRHPKKC [CW peptides],Kd,2350 ± 90 nM
